# According to patent US20150291565A1, “INDOLE COMPOUNDS AND THEIR USE AS ANTIMICROBIALS” (Memorial Sloan-Kettering Cancer Center, priority 2012, published 2015):
# Assays:
# MRSA = assay: Disk diffusion assay, zone of inhibition, MRSA; type: cell-based, Staphylococcus aureus; details: disk diffusion zone of inhibition
# M. smegmatis (mc2155) = assay: Disk diffusion assay, zone of inhibition, M. smegmatis; type: cell-based; details: disk diffusion zone of inhibition
# E. faecium CT-26 = assay: Broth dilution MIC, E. faecium CT-26; type: cell-based
# K. pneumoniae ATCC 13883 = assay: Broth dilution MIC, K. pneumoniae ATCC 13883; type: cell-based; details: Table 4; broth dilution MIC according to CLSI standards (NAEJA)
# [1] = test system: S. pneumoniae ATCC 6301 (PSSP); assay: Broth dilution MIC, S. pneumoniae ATCC 6301; type: cell-based
# S. aureus BAA-39 (MDR) = assay: Broth dilution MIC, S. aureus BAA-39; type: cell-based
# P. aeruginosa ATCC 9027 = assay: Broth dilution MIC, P. aeruginosa ATCC 9027; type: cell-based; details: Table 4; broth dilution MIC according to CLSI standards (NAEJA)
# [2] = test system: S. aureus ATCC 29213 (MSSA); assay: Broth dilution MIC, S. aureus ATCC 29213; type: cell-based
# [3] = test system: S. pneumoniae ATCC 700674 (PRSP); assay: Broth dilution MIC, S. pneumoniae ATCC 700674; type: cell-based
# E. coli ECM 1694 = assay: Broth dilution MIC, E. coli ECM 1694; type: cell-based
# E. coli ATCC 25922 = assay: Broth dilution MIC, E. coli ATCC 25922; type: cell-based; details: Table 4; broth dilution MIC according to CLSI standards (NAEJA)
# [4] = test system: S. aureus ATCC 33591 (MRSA); assay: Broth dilution MIC, S. aureus ATCC 33591; type: cell-based
# [5] = test system: E. faecalis ATCC 29212 (VRE); assay: Broth dilution MIC, E. faecalis ATCC 29212; type: cell-based
# K. pneumoniae ATCC 51503 = assay: Broth dilution MIC, K. pneumoniae ATCC 51503; type: cell-based; details: Table 4; broth dilution MIC according to CLSI standards (NAEJA)
# [6] = test system: E. faecium ATCC 700221 (VRE); assay: Broth dilution MIC, E. faecium ATCC 700221; type: cell-based
# [7] = Table 4, broth dilution MIC according to CLSI standards (NAEJA)
compound,measurement,setting,value
Nc1ccc(-c2cc3ccc(C4=NCCN4)cc3[nH]2)cc1 [Compound 398657],Zone Size MRSA,MRSA,8.3 mm
same,Zone Size M. smegmatis,M. smegmatis (mc2155),9.2 mm
"C[C@@H](O)[C@H]1C(=O)N2C(C(=O)O)=C(SCCN=CN)C[C@H]12 [IMP, reference compound]",MIC E. faecium CT-26,"E. faecium CT-26; Table 3, starting at 4 μg/ml",>4 µg/mL
same,MIC E. faecium CT-26,E. faecium CT-26; [7],>4 µg/mL
same,MIC K. pneumoniae ATCC 13883,K. pneumoniae ATCC 13883,2 µg/mL
same,MIC S. pneumoniae ATCC 6301,"[1]; Table 3, starting at 4 μg/ml",≦0.008 mcg/ml
same,MIC PSSP S. pneumoniae ATCC 6301,[1]; [7],0.015 µg/mL
same,MIC S. aureus BAA-39,"S. aureus BAA-39 (MDR); Table 3, starting at 4 μg/ml",1 µg/mL
same,MIC MDR S. aureus BAA-39,S. aureus BAA-39 (MDR); [7],4 µg/mL
same,MIC P. aeruginosa ATCC 9027,P. aeruginosa ATCC 9027,4 µg/mL
same,MIC S. aureus ATCC 29213,"[2]; Table 3, starting at 4 μg/ml",0.016 µg/mL
same,MIC MSSA S. aureus ATCC 29213,[2]; [7],0.06 µg/mL
same,MIC S. pneumoniae ATCC 700674,"[3]; Table 3, starting at 4 μg/ml",0.06 µg/mL
same,MIC PRSP S. pneumoniae ATCC 700674,[3]; [7],0.5 µg/mL
same,MIC E. coli ECM 1694,"E. coli ECM 1694; Table 3, starting at 4 μg/ml",0.5 µg/mL
same,MIC E. coli ECM 1694,E. coli ECM 1694; [7],2 µg/mL
same,MIC E. coli ATCC 25922,E. coli ATCC 25922,1 µg/mL
same,MIC S. aureus ATCC 33591,"[4]; Table 3, starting at 4 μg/ml",>4 µg/mL
same,MIC MRSA S. aureus ATCC 33591,[4]; [7],>4 µg/mL
same,MIC E. faecalis ATCC 29212,"[5]; Table 3, starting at 4 μg/ml",1 µg/mL
same,MIC VRE E. faecalis ATCC 29212,[5]; [7],4 µg/mL
same,MIC K. pneumoniae ATCC 51503,K. pneumoniae ATCC 51503,2 µg/mL
same,MIC E. faecium ATCC 700221,"[6]; Table 3, starting at 4 μg/ml",>4 µg/mL
same,MIC VRE E. faecium ATCC 700221,[6]; [7],>4 µg/mL
